# Columns and labels:
# Test in all cases: relative viability (nuclei count vs DMSO), 5 days (fraction); higher = more cells survive
# BEN = tested on: BEN
# Method in brief: (§1)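 The day after seeding in 1536-well plates, lung cancer cell lines were treated by pin tool with a single drug, or with a fixed anchor-drug dose together with five library-drug doses (not always all listed) in √10 steps. After 5 days, a combined fix-and-stain solution (final 0.05% Triton X-100, 1% formaldehyde, 1 ug/ml Hoechst) was added. Nuclei counted on 4× images gave relative viability as treated counts over vehicle counts, reported as the median of duplicate plates.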
# EKVX = tested on: EKVX
# Method in brief: as §1
# HARA = tested on: HARA
# Method in brief: as §1
# HCC-366 = tested on: HCC-366
# Method in brief: as §1
# HCC-827 = tested on: HCC-827
# Method in brief: as §1
# LOU-NH91 = tested on: LOU-NH91
# Method in brief: as §1
# NCI-H1355 = tested on: NCI-H1355
# Method in brief: as §1
# NCI-H1395 = tested on: NCI-H1395
# Method in brief: as §1
# NCI-H1437 = tested on: NCI-H1437
# Method in brief: as §1
# NCI-H1734 = tested on: NCI-H1734
# Method in brief: as §1
# NCI-H1792 = tested on: NCI-H1792
# Method in brief: as §1
# NCI-H1993 = tested on: NCI-H1993
# Method in brief: as §1
# NCI-H2009 = tested on: NCI-H2009
# Method in brief: as §1
# NCI-H2087 = tested on: NCI-H2087
# Method in brief: as §1
# NCI-H2170 = tested on: NCI-H2170
# Method in brief: as §1
# NCI-H2405 = tested on: NCI-H2405
# Method in brief: as §1
# NCI-H647 = tested on: NCI-H647
# Method in brief: as §1
# SK-LU-1 = tested on: SK-LU-1
# Method in brief: as §1
# SK-MES-1 = tested on: SK-MES-1
# Method in brief: as §1
compound,measurement,setting,value
CCN(CC)CCCCNc1ncc2cc(-c3cc(OC)cc(OC)c3)c(NC(=O)NC(C)(C)C)nc2n1 + CC1(C)CCC(c2ccc(Cl)cc2)=C(CN2CCN(c3ccc(C(=O)NS(=O)(=O)c4ccc(N[C@H](CCN5CCOCC5)CSc5ccccc5)c(S(=O)(=O)C(F)(F)F)c4)cc3)CC2)C1 [Navitoclax] (partner 0.5 µM),relative viability,BEN; first compound 0.01 µM,0.0624
same,relative viability,BEN; first compound 0.03162 µM,0.0641
same,relative viability,BEN; first compound 0.1 µM,0.0454
same,relative viability,BEN; first compound 0.3162 µM,0.0573
same,relative viability,BEN; first compound 1 µM,0.0385
same,relative viability,EKVX; first compound 0.01 µM,0.946
same,relative viability,EKVX; first compound 0.03162 µM,0.851
same,relative viability,EKVX; first compound 0.1 µM,1.01
same,relative viability,EKVX; first compound 0.3162 µM,1.04
same,relative viability,EKVX; first compound 1 µM,0.968
same,relative viability,HARA; first compound 0.01 µM,1.19
same,relative viability,HARA; first compound 0.03162 µM,1.15
same,relative viability,HARA; first compound 0.1 µM,1.29
same,relative viability,HARA; first compound 0.3162 µM,1.14
same,relative viability,HARA; first compound 1 µM,1.04
same,relative viability,HCC-366; first compound 0.01 µM,1.16
same,relative viability,HCC-366; first compound 0.03162 µM,1.09
same,relative viability,HCC-366; first compound 0.1 µM,1.2
same,relative viability,HCC-366; first compound 0.3162 µM,1.27
same,relative viability,HCC-366; first compound 1 µM,1.2
same,relative viability,HCC-827; first compound 0.01 µM,1.06
same,relative viability,HCC-827; first compound 0.03162 µM,0.981
same,relative viability,HCC-827; first compound 0.1 µM,1.05
same,relative viability,HCC-827; first compound 0.3162 µM,0.993
same,relative viability,HCC-827; first compound 1 µM,1.02
same,relative viability,LOU-NH91; first compound 0.01 µM,0.611
same,relative viability,LOU-NH91; first compound 0.03162 µM,0.674
same,relative viability,LOU-NH91; first compound 0.1 µM,0.718
same,relative viability,LOU-NH91; first compound 0.3162 µM,0.795
same,relative viability,LOU-NH91; first compound 1 µM,0.722
same,relative viability,NCI-H1355; first compound 0.01 µM,0.906
same,relative viability,NCI-H1355; first compound 0.03162 µM,1.09
same,relative viability,NCI-H1355; first compound 0.1 µM,0.991
same,relative viability,NCI-H1355; first compound 0.3162 µM,1.02
same,relative viability,NCI-H1355; first compound 1 µM,0.938
same,relative viability,NCI-H1395; first compound 0.03162 µM,1.1
same,relative viability,NCI-H1395; first compound 0.1 µM,1.09
same,relative viability,NCI-H1395; first compound 0.3162 µM,1.17
same,relative viability,NCI-H1395; first compound 1 µM,0.751
same,relative viability,NCI-H1437; first compound 0.01 µM,1.11
same,relative viability,NCI-H1437; first compound 0.03162 µM,1.1
same,relative viability,NCI-H1437; first compound 0.1 µM,1.35
same,relative viability,NCI-H1437; first compound 0.3162 µM,1.22
same,relative viability,NCI-H1437; first compound 1 µM,1.04
same,relative viability,NCI-H1734; first compound 0.01 µM,0.971
same,relative viability,NCI-H1734; first compound 0.03162 µM,0.863
same,relative viability,NCI-H1734; first compound 0.1 µM,0.824
same,relative viability,NCI-H1734; first compound 0.3162 µM,1.03
same,relative viability,NCI-H1734; first compound 1 µM,0.761
same,relative viability,NCI-H1792; first compound 0.01 µM,0.688
same,relative viability,NCI-H1792; first compound 0.03162 µM,0.739
same,relative viability,NCI-H1792; first compound 0.1 µM,0.712
same,relative viability,NCI-H1792; first compound 0.3162 µM,1.49
same,relative viability,NCI-H1792; first compound 1 µM,0.19
same,relative viability,NCI-H1993; first compound 0.01 µM,0.904
same,relative viability,NCI-H1993; first compound 0.03162 µM,0.954
same,relative viability,NCI-H1993; first compound 0.1 µM,0.963
same,relative viability,NCI-H1993; first compound 0.3162 µM,1.07
same,relative viability,NCI-H1993; first compound 1 µM,0.895
same,relative viability,NCI-H2009; first compound 0.01 µM,1.25
same,relative viability,NCI-H2009; first compound 0.03162 µM,1.14
same,relative viability,NCI-H2009; first compound 0.1 µM,1.21
same,relative viability,NCI-H2009; first compound 0.3162 µM,1.31
same,relative viability,NCI-H2009; first compound 1 µM,1.11
same,relative viability,NCI-H2087; first compound 0.01 µM,1.15
same,relative viability,NCI-H2087; first compound 0.03162 µM,1.12
same,relative viability,NCI-H2087; first compound 0.1 µM,1.35
same,relative viability,NCI-H2087; first compound 0.3162 µM,1.23
same,relative viability,NCI-H2087; first compound 1 µM,0.986
same,relative viability,NCI-H2170; first compound 0.01 µM,0.586
same,relative viability,NCI-H2170; first compound 0.03162 µM,0.75
same,relative viability,NCI-H2170; first compound 0.1 µM,0.558
same,relative viability,NCI-H2170; first compound 0.3162 µM,0.641
same,relative viability,NCI-H2170; first compound 1 µM,0.528
same,relative viability,NCI-H2405; first compound 0.01 µM,0.707
same,relative viability,NCI-H2405; first compound 0.03162 µM,0.772
same,relative viability,NCI-H2405; first compound 0.1 µM,0.853
same,relative viability,NCI-H2405; first compound 0.3162 µM,0.901
same,relative viability,NCI-H2405; first compound 1 µM,0.789
same,relative viability,NCI-H647; first compound 0.01 µM,1.12
same,relative viability,NCI-H647; first compound 0.03162 µM,1.14
same,relative viability,NCI-H647; first compound 0.1 µM,1.41
same,relative viability,NCI-H647; first compound 0.3162 µM,1.21
same,relative viability,NCI-H647; first compound 1 µM,0.929
same,relative viability,SK-LU-1; first compound 0.01 µM,1.02
same,relative viability,SK-LU-1; first compound 0.03162 µM,0.894
same,relative viability,SK-LU-1; first compound 0.1 µM,1.08
same,relative viability,SK-LU-1; first compound 0.3162 µM,1.18
same,relative viability,SK-LU-1; first compound 1 µM,0.639
same,relative viability,SK-MES-1; first compound 0.01 µM,1.27
same,relative viability,SK-MES-1; first compound 0.03162 µM,1.37
same,relative viability,SK-MES-1; first compound 0.1 µM,1.6
same,relative viability,SK-MES-1; first compound 0.3162 µM,1.36
same,relative viability,SK-MES-1; first compound 1 µM,1.22

# Source: the supplement of paper PMC10307832
